Measurements as given in patent publication US20240189221A1, “METHODS AND FORMULATIONS FOR TREATING VASCULAR DISEASE” (ENDOPERFUSION SOLUTIONS, LLC, priority 2015, published 2024).

Tested on: Human artery smooth muscle cells
Test: Smooth muscle cell proliferation (cell count by flow cytometry)
Type: cell-based
Conditions: 0.01-1 μM, 48 h; FIG. 6, FIG. 7A
Experimental: Human artery smooth muscle cells were seeded at 20,000 cells per well on 24-well plates (3 wells per condition) in growth medium and allowed to adhere overnight at 37° C. […] Cells were washed with PBS, trypsinized, and counted using a flow cytometer (Beckman-Coulter FC500).

COCc1c(C(C)C)nc(C(C)C)c(/C=C/[C@@H](O)C[C@@H](O)CC(=O)O)c1-c1ccc(F)cc1 [free cerivastatin, (3R,5S,6E)-7-[4-(4-fluorophenyl)-5-(methoxymethyl)-2,6-bis(propan-2-yl)pyridin-3-yl]-3,5-dihydroxyhept-6-enoic acid]
proliferation of SMCs: inhibits the proliferation of SMCs
